Results from patent US20100324017A1, “ACYLGUANIDINE DERIVATIVE” (priority 2007, published 2010).

Key:
Type in all cases: in vivo
[1] = system: PCP-induced prepulse inhibition (PPI) disorder; experiment: Disorder of PCP-induced prepulse inhibition (PPI) in a rat; settings: oral, PCP 1 mg/kg s.c., % PPI
Experimental: An Improvement Effect for a Disorder of PCP-Induced Prepulse Inhibition (PPI) in a Rat
A startle amplitude occurs in humans to which an sound stimulus has been given, but in healthy human, this startle amplitude is inhibited by the giving of a weak sound stimulus that precedes the sound stimulus. For a patient with schizophrenia, the inhibitory function similarly declined. It is known that when a rat is administered with PCP (phencyclidine), there is a symptom similar to the negative symptom of schizophrenia in humans. Using this model, the improvement effect of the compound (I) for the information processing disorder included in cognitive impairment of schizophrenia was evaluated.
Species: Male Wistar rat/number of the animals (number of animals per group): 12 animals per group
Startle amplitude measuring device for small animals: an SR-LAB ABS system (manufactured by San Diego Instruments)
An animal holder, to which a Plexiglas-made cylinder for animal storage having a diameter of 8.2 cm was attached, was positioned in the upper part of a Plexiglas-made frame in a measurement box. In the measurement box, a sound-insulating treatment and ventilation (FAN) were carried out. Sound was administered by a speaker attached to the 24 cm upper part of the cylinder. The movement of the animals in the cylinder was detected by a transducer attached in the lower part of the frame and recorded by a microcomputer via an interface.
The experiment was initiated after the animals were put into the chamber for measurement and had spent 10 minutes adapting to the measurement environment. Basically, at 35 minutes after the compound to be tested was orally administered, 1 mg/kg of PCP was subcutaneously administered (1 ml/kg). Five minutes later, the rats were put into a chamber for measurement, allowed to adapt for 10 minutes, and the measurement was then initiated. A white noise of 65 dB (for all frequencies, a disordered noise having a constant energy per unit band) used as a background noise was always played through the break periods and the sessions. The three types of trials as shown below were carried out in a random order 10 times for each type with 30 times in total. Each trial was carried out at a pseudo-random interval of 20 to 60 seconds with an average of 40 seconds. A pulse was defined as a white noise of 120 dB, 20 msec, and a prepulse was defined as a white noise of 70, 80 dB, 20 msec.
The startle amplitude of the animal was measured for 100 msec from the initiation of the pulse, and the maximum value was taken as a “maximum startle amplitude (Vmax))”. The “maximum startle amplitude” for the ten times for each of the three types of trials were averaged, and taken as a “startle amplitude (simply referred to as SA)” under the stimulation condition.
The % prepulse inhibition (% PPI) was calculated in the following equation in the PP80 & P trial of 3) above.
% Prepulse inhibition (% PPI)=(Startle amplitude at P-alone trial (SA)−Startle amplitude (SA) at a PP80 & P trial)/Startle amplitude at P alone trial×100
The measured value was expressed as an average value (mean±SE). First, the startle amplitudes (SA) were statistically analyzed. […] For the measured data of % PPI, the normal group and the control group (the group administered with PCP) were compared by a Student t-test, and for the control group and the group administered with the compound to be tested were compared using a Dunnett evaluation. […] The effect of the compound to be tested was assessed with % PPI.

[2] = system: MK-801-induced overactivity; experiment: MK-801-induced overactivity in mice, kinetic momentum by infrared sensor; settings: mouse, oral, dose 0.01 mg/kg; MK-801 0.3 mg/kg i.p.; total 60 minutes, P<0.05
Experimental: (§1) Evaluation of Various Drugs Relative to a Drug for Increasing the Kinetic Momentum of Mice (Methane Phetamine, MK-801) (Method for Measuring a Kinetic Momentum by Discharge of an Infrared Ray)
(§2) The effect of improving the positive symptoms and the negative symptoms of schizophrenia by the compound (I) was evaluated by measuring the kinetic momentum that had been […] with administration of the compound in a model causing the symptoms by methane phetamine (which is hereinafter simply referred to as MAP) and MK-801.
(§3) Species: Male ICR mouse/number of animals (number of animals per group): 8 to 12 animals per group
(§4) The animal was left in a laboratory for 1 hour or longer to be acclimated to the environment, and the animal was taken from the feeding cage, orally administered with a compound to be tested, and then returned to the feeding cage. After 30 minutes, it was put into a cage for measurement, and the kinetic momentum of just the compound to be tested was measured. Further, after 30 minutes, the animal was taken out, and intraperitoneally administered with a drug for increasing kinetic momentum (MAP; 1 mg/kg or MK-801; 0.3 mg/kg, all dissolved in physiological saline), and its kinetic momentum was measured for a certain time (60 minutes) using a device for measuring the kinetic momentum by means of an infrared ray sensor (CompACT AMS, Muromachi Kikai Co., Ltd.). Also, the test was carried out under non-fasting.
(§5) The 60 minutes of measurements was classified into three groups: a first half 30 minutes, a second half 30 minutes, and a total 60 minutes. For a normal mouse (a mouse administered with physiological saline) and a mouse administered with the drug for increasing kinetic momentum, a Student's T test was used for evaluation in each interval. For the group administered with the compound to be tested, a solvent (vehicle) group and a Dunnett's T test were carried out and evaluated. For the evaluation, in case where there was a significant (P<0.05) difference for the total 60 minutes, it was considered to be effective.

[3] = system: MAP-induced overactivity; experiment: MAP (methane phetamine)-induced overactivity in mice, kinetic momentum by infrared sensor; settings: mouse, oral, MAP 1 mg/kg i.p., total 60 minutes, P<0.05
Experimental: as §1, §2, §3, §4, §5

| Structure (SMILES) | improvement of the disorder of PCP prepulse inhibition (PPI) ([1]; dose 0.03 mg/kg) | improvement of the disorder of PCP prepulse inhibition (PPI) ([1]; dose 0.1 mg/kg) | inhibition of MK-801-induced overactivity [2] | inhibition of MAP-induced overactivity ([3]; dose 0.01 mg/kg) | improvement of the disorder of PCP prepulse inhibition (PPI) ([1]; dose 0.3 mg/kg) | inhibition of MAP-induced overactivity ([3]; dose 0.003 mg/kg) |
| --- | --- | --- | --- | --- | --- | --- |
| NC(N)=NC(=O)c1ccc2c3ccccc3n(C3CCOCC3)c2c1 [Example 25] | significantly improved | significantly improved | significantly inhibited | significantly inhibited |  |  |
| CC(C)n1c2cc(C(=O)N=C(N)N)ccc2c2c(CO)cccc21 [Example 65] |  | significantly improved | significantly inhibited |  | significantly improved | significantly inhibited |
